Measured values as given in US20100331338A1, “Glucokinase Activators” (Merck Patent GMBH, priority 2008, published 2010).

Target: T1, hGK (Homo sapiens, UniProt P35557)
T1 sequence (P35557 1-465): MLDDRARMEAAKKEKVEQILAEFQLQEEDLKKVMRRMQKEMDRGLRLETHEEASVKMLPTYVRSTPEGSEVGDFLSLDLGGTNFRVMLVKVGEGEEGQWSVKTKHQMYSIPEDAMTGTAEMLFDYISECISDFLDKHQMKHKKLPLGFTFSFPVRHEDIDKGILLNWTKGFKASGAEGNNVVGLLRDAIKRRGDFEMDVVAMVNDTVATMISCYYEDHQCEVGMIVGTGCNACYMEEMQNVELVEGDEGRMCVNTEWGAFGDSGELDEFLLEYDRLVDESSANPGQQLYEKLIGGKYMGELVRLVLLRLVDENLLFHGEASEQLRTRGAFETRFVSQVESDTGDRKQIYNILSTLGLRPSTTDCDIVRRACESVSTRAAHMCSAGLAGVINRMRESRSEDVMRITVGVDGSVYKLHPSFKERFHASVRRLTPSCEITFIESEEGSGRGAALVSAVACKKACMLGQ
Assay: Glucokinase Activation Screening Assay (coupled enzyme assay with PK/LDH)
Assay type: biochemical
Conditions: 2 mM glucose; for hGK fold activation at 30 μM: fold activation at 30 μM compound
Experimental: Glucokinase Activation Screening Assay
GK activity (human or rat enzyme) is measured by a coupled enzyme assay using pyruvate kinase (PK) and lactate dehydrogenase (LDH) as coupling enzymes. GK activity is calculated from the decline in NADH monitored photometrically with a microtiter plate (MTP) reader at 340 nm.
For screening purposes, the GK assay is routinely run in a 384-MTP format, in a total volume of 33 μl/well. 10 μl of the ATP-regeneration solution (in HEPES-buffer*, pH 7.0, 6.73 U/ml pyruvate kinase, 6.8 U/ml lactate dehydrogenase) and 10 μl of the glucokinase-/glucose solution (15 μg/ml, 6.6 mM glucose in HEPES-buffer*, pH 7.0; the concentration of the glucose stock-solution was 660 mM in Millipore H2O) were mixed together with […] of a 10% DMSO solution (in HEPES-buffer*, pH 7.0) containing 3.3-fold the amounts of the compounds to achieve final compound concentrations in the range between 1 nM to 30 μM (sometimes 300 μM) in the assay solution (s. below). The solutions were mixed for 5 sec, and after a centrifugation at 243×g for 5 min, the solutions were preincubated for 25 min at room temperature.
The reaction was started by the addition of 10 μl of the NADH-/ATP-solution (4.29 mM NADH, 4.95 mM ATP, in HEPES-buffer*). The MTP was shaken for 5 sec., and then, the absorbance at 340 nm was monitored continuously in a MTP-reader (TECAN Spectro fluor plus) for the next 27 min (with a MTP-cycling time of 199 sec.). The final concentrations of the various components were as follows: 49.5 mM Hepes, pH 7.0, 1.49 mM PEP,1,3 mM NADH, 49.5 mM KCl, 4.96 mM MgCl2, 1.5 mM Mg-ATP, 1.98 mM DTT, 2.04 U/ml pyruvate kinase, 2.06 U/ml lactate-dehydrogenase, 0.91% DMSO, 0.15 μg/well glucokinase, and test compounds in the range between 1 nM and 300 μM.
The change in the optical density (ΔOD340 nm) in the presence of the compound was expressed relative to the ΔOD340 nm, ctrl of the control incubation (in the presence of 2 mM glucose and 0.91% DMSO), taking into account the optical density of the blank sample (incubation in the absence of 2 mM glucose). For the determination of the half maximal effective concentration (EC50), the %-Ctrl-values were plotted in a semi-logarithmic graph against the conc. of the compound of interest. The data points were fitted to a sigmoid curve function (f(x)=((%-Ctrlmax%-Ctrlmin)/(1−(EC50/x**^n(Hill)))+%-Ctrlmin)) by a non-linear regression analysis.
* Hepes-buffer (50 mM Hepes, pH 7.0, 5 mM MgCl2, 50 mM KCl, 1.5 mM PEP, 0.1% BSA). DTT was added to the Hepes-buffer from a 200× stock solution (in Millipore H2O) freshly each day. The final concentration of DTT in the Hepes-buffer is 2 mM.

Row | SMILES | hGK fold activation at 30 μM | EC50 [µM]
1 | CCCc1cc(C(=O)Nc2nncs2)cs1 [Example 24, 5-Propyl-thiophene-3-carboxylic acid[1,3,4]thiadiazol-2-ylamide] | 2.4 | 
2 | Cc1ccc(C(=O)Nc2nccs2)s1 [Example 26, 5-Methyl-thiophene-2-carboxylic acid thiazol-2-ylamide] | 1.5 | 
3 | CCCc1cc(C(=O)Nc2ccc(F)cn2)cs1 [Example 27, 5-Propyl-thiophene-3-carboxylic acid(5-fluoro-pyridin-2-yl)-amide] | 2.1 | 
4 | CCCc1cc(C(=O)Nc2ccon2)cs1 [Example 28, 5-Propyl-thiophene-3-carboxylic acid isoxazol-3-ylamide] | 2 | 
5 | CCCc1cc(C(=O)Nc2ccn(C)n2)cs1 [Example 29, 5-Propyl-thiophene-3-carboxylic acid(1-methyl-1H-pyrazol-3-yl)-amide] | 5.5 | 
6 | CCCc1cc(C(=O)Nc2cc(Cl)ccn2)cs1 [Example 31, 5-Propyl-thiophene-3-carboxylic acid(4-chloro-pyridin-2-yl)-amide] | 2.7 | 
7 | CCCc1sc(C(=O)Nc2nccs2)cc1CC [Example 33, 4-Ethyl-5-propyl-thiophene-2-carboxylic acid thiazol-2-ylamide] | 9.4 | 
8 | CCCc1cc(C(=O)Nc2ccncn2)cs1 [Example 36, 5-Propyl-thiophene-3-carboxylic acid pyrimidin-4-ylamide] | 2.7 | 
9 | CCCc1cc(C(=O)Nc2ccn(Cc3ccccn3)n2)cs1 [Example 37, 5-Propyl-thiophene-3-carboxylic acid(1-pyridin-2-ylmethyl-1H-pyrazol-3-yl)-amide] | 3.6 | 
10 | CCCc1cc(C(=O)Nc2cc[nH]n2)cs1 [Example 38, 5-Propyl-thiophene-3-carboxylic acid(1H-pyrazol-3-yl)-amide] | 2.7 | 
11 | CCCc1cc(C(=O)Nc2cc(C)ccn2)cs1 [Example 39, 5-Propyl-thiophene-3-carboxylic acid(4-methyl-pyridin-2-yl)-amide] | 2.4 | 
12 | CCOC(=O)Cn1ccc(NC(=O)c2cc(COC)cs2)n1 [Example 40, {3-[(4-Methoxymethyl-thiophene-2-carbonyl)-amino]-pyrazol-1-yl}-acetic acid ethyl ester] | 2.6 | 4.2
13 | CCCc1cc(C(=O)Nc2ccccn2)cs1 [Example 41, 5-Propyl-thiophene-3-carboxylic acid pyridin-2-ylamide] | 2.5 | 
14 | CCCc1cc(C(=O)Nc2nc(C(=O)O)cs2)cs1 [Example 42, 2-[(5-Propyl-thiophene-3-carbonyl)-amino]-thiazole-4-carboxylic acid] | 3.3 | 9
15 | COCc1csc(C(=O)Nc2cc(C)n(CC(=O)O)n2)c1 [Example 43, {3-[(4-Methoxymethyl-thiophene-2-carbonyl)-amino]-5-methyl-pyrazol-1-yl}-acetic acid] | 1.2 | 

The remaining lines, values ahead:

Row | hGK fold activation at 30 μM | EC50 [µM] | SMILES
16 | 1.7 |  | COCc1csc(C(=O)Nc2ccn(CC(=O)O)n2)c1 [Example 44, {3-[(4-Methoxymethyl-thiophene-2-carbonyl)-amino]-pyrazol-1-yl}-acetic acid]
17 | 2.1 |  | CCCc1cc(C(=O)Nc2nc(CC(=O)O)cs2)cs1 [Example 46, {2-[(5-Propyl-thiophene-3-carbonyl)-amino]-thiazol-4-yl}-acetic acid]
18 | 6.4 | 3.9 | CCN(CC)S(=O)(=O)c1cc(C(=O)Nc2nccs2)sc1C [Example 48, 4-Diethylsulfamoyl-5-methyl-thiophene-2-carboxylic acid thiazol-2-ylamide]
19 | 1.3 |  | Cc1sc(C(=O)Nc2nccs2)cc1S(=O)(=O)NCc1ccccc1 [Example 49, 4-Benzylsulfamoyl-5-methyl-thiophene-2-carboxylic acid thiazol-2-ylamide]
20 | 2.6 | 3.9 | Cc1sc(C(=O)Nc2nccs2)cc1S(=O)(=O)N(C)C [Example 50, 4-Dimethylsulfamoyl-5-methyl-thiophene-2-carboxylic acid thiazol-2-ylamide]
21 | 2.1 | 10 | CCCOc1sc(C(=O)Nc2nccs2)cc1S(C)(=O)=O [Example 52, 4-Methanesulfonyl-5-propoxy-thiophene-2-carboxylic acid thiazol-2-ylamide]
22 | 5.6 | 10 | CCCc1cc(C(=O)Nc2nccs2)cs1 [Example 53, 5-Propyl-thiophene-3-carboxylic acid thiazol-2-ylamide]
